Measured values from ChEMBL document CHEMBL6071133, “Discovery of novel penetrating peptides able to target human leukemia and lymphoma for enhanced PROTAC delivery” (Eur J Med Chem, 2024).
Values belong to the compound of their own block, whether it stands above or below them. Activity calls are given as the source filed them. The calls are words filed in the database; no cut-off is given here. Square brackets hold non-standard residues; d marks the D form. Peptide text beside a SMILES is read from it. Bta = N[C@@H](Cc1csc2ccccc12)C(=O)O

How the values were obtained:
[1] = Drug uptake in human K562 cells assessed as membrane penetration by measuring increase in fluorescence intensity at 5 umol/L incubated for 2 hrs by flow cytometry relative to C9C; type: ADME, cell-based; settings: k562, 2 h, 5 µM, dose 5 µmol/L
[2] = Drug uptake in human KU812 cells assessed as membrane penetration by measuring increase in fluorescence intensity at 5 umol/L incubated for 2 hrs by flow cytometry relative to C9C; type: ADME, cell-based; settings: ku812, 2 h, 5 µM, dose 5 µmol/L
[3] = Cytotoxicity against human THP-1 cells assessed as cell viability at higher concentrations incubated for 48 hrs by MTT assay; type: toxicity, cell-based; settings: read-out: Activity
K562 [4] = assay: Induction of cell cycle arrest in human K562 cells assessed as accumulation of cells at G2/M phase at PROTAC to compound concentration ratio of 1:5 incubated for 48 hrs in presence of 3 umol/L IMA-PROTAC by propidium iodide staining based flow cytometry; type: functional
[5] = Drug uptake in human KU812 cells assessed as increase in fluorescence intensity at 1 to 10 umol/L incubated for 2 hrs by cell imaging based fluorescence microscopic analysis; type: ADME; settings: ku812, 2 h, dose 1-10 µmol/L
[6] = Drug uptake in human K562 cells assessed as increase in fluorescence intensity at 5 umol/L pretreated with endocytosis inhibitor, nystatin for 0.5 hrs followed by incubation with compound for 2 hrs by FACS analysis; type: ADME, cell-based; settings: k562, 2 h, 5 µM, dose 5 µmol/L
[7] = Drug uptake in human K562 cells assessed as increase in fluorescence intensity at 5 umol/L measured for 5 to 30 mins by flow cytometry; type: ADME, cell-based; settings: k562, 5 µM, TDE = time-dependent effect, time 5-30 min, dose 5 µmol/L
[8] = Drug uptake in human CCRF-CEM cells assessed as perinuclear distribution and colocalization with nucleus at 10 umol/L incubated for 2 hrs by confocal laser microscopy; type: ADME, cell-based; settings: 10 µM, dose 10 µmol/L
[9] = Drug uptake in human K562 cells assessed as perinuclear distribution and colocalization with nucleus at 10 umol/L incubated for 2 hrs by confocal laser microscopy; type: ADME, cell-based; settings: k562, 2 h, 10 µM, dose 10 µmol/L
K562 [10] = assay: Increase in membrane permeability of IMA-PROTAC in human K562 cells assessed as potentiation of IMA-PROTAC-induced inhibition of STAT5 phosphorylation at PROTAC to compound concentration ratio of 1:5 to 1:3 incubated for 48 hrs in presence of 3 umol/L IMA-PROTAC by western blot analysis; type: functional, cell-based
[11] = Stability of the compound in fetal bovine serum assessed as parent compound remaining measured after 36 hrs by HPLC-MS analysis; type: ADME, cell-free, Bos taurus; settings: cattle, read-out: Stability
[12] = Drug uptake in human KU812 cells assessed as perinuclear distribution and colocalization with nucleus at 10 umol/L incubated for 2 hrs by confocal laser microscopy; type: ADME, cell-based; settings: ku812, 2 h, 10 µM, dose 10 µmol/L
[13] = Drug uptake in human K562 cells assessed as membrane permeability by measuring increase in fluorescence intensity at 5 umol/L incubated for 2 hrs by flow cytometry relative to THP-1 cells; type: ADME, cell-based; settings: k562, 2 h, 5 µM, dose 5 µmol/L
[14] = Drug uptake in human KU812 cells assessed as increase in fluorescence intensity at 1 to 10 uM incubated for 2 hrs by flow cytometry; type: ADME, cell-based; settings: ku812, 2 h, dose 1-10 µM
K562 [15] = assay: Induction of apoptosis in human K562 cells assessed as late apoptotic cells at PROTAC to compound concentration ratio of 1:5 incubated for 48 hrs in presence of 3 umol/L IMA-PROTAC by AnnexinV-FITC/PI staining based flow cytometry (reference value: 0.01%); type: functional
[16] = Drug uptake in human K562 cells assessed as fluorescence intensity at 5 umol/L pretreated with endocytosis inhibitor, chloroquine for 0.5 hrs followed by incubation with compound for 2 hrs by FACS analysis; type: ADME, cell-based; settings: k562, 2 h, 5 µM, dose 5 µmol/L
[17] = Increase in membrane permeation of IMA-PROTAC in human K562 cells assessed as increase in intracellular content of IMA-PROTAC incubated for 3 hrs by HPLC-MRM-MS analysis relative to control; type: functional
[18] = Drug uptake in human K562 cells assessed as fluorescence intensity at 5 umol/L pretreated with endocytosis inhibitor, chlorpromazine for 0.5 hrs followed by incubation with compound for 2 hrs by FACS analysis; type: ADME, cell-based; settings: k562, 2 h, 5 µM, dose 5 µmol/L
[19] = Drug uptake in human K562 cells assessed as increase in fluorescence intensity at 5 umol/L measured for 60 to 240 mins by flow cytometry; type: ADME, cell-based; settings: k562, 5 µM, TDE = time-dependent effect, time 60-240 min, dose 5 µmol/L
K562 [20] = assay: Potentiation of IMA-PROTAC-induced cytotoxicity against human K562 cells assessed as inhibition of cell growth at compound: IMA-PROTAC concentration ratio of 5:1 incubated for 48 hrs in presence of 3 umo/L IMA-PROTAC by MTT assay; type: functional, cell-based
[21] = Interaction with IMA-PROTAC assessed as induction of assembly formation by transmission electron microscopy; type: physicochemical
[22] = Cytotoxicity against human KU812 cells assessed as cell viability at 0.01 to 100 uM incubated for 48 hrs by MTT assay; type: toxicity, cell-based; settings: dose 0.01-100 µM, read-out: Activity
K562 [23] = assay: Induction of apoptosis in human K562 cells assessed as viable cells at PROTAC to compound concentration ratio of 1:5 incubated for 48 hrs in presence of 3 umol/L IMA-PROTAC by AnnexinV-FITC/PI staining based flow cytometry (reference value: 99.85%); type: functional
K562 [24] = assay: Increase in membrane permeability of IMA-PROTAC in human K562 cells assessed as potentiation of IMA-PROTAC-induced Bcr-Abl degradation at PROTAC to compound concentration ratio of 1:5 to 1:3 incubated for 48 hrs in presence of 3 umol/L IMA-PROTAC by western blot analysis; type: functional, cell-based
[25] = Drug uptake in human KU812 cells assessed as membrane permeability by measuring increase in fluorescence intensity at 5 umol/L incubated for 2 hrs by flow cytometry relative to THP-1 cells; type: ADME, cell-based; settings: ku812, 2 h, 5 µM, dose 5 µmol/L
[26] = Cytotoxicity against human K562 cells assessed as cell viability at 0.01 to 100 uM incubated for 48 hrs by MTT assay; type: toxicity, cell-based; settings: dose 0.01-100 µM, read-out: Activity
[27] = Drug uptake in human K562 cells assessed as fluorescence intensity at 5 umol/L pretreated with endocytosis inhibitor, methyl-beta-cyclodextrin for 0.5 hrs followed by incubation with compound for 2 hrs by FACS analysis; type: ADME, cell-based; settings: k562, 2 h, 5 µM, dose 5 µmol/L
[28] = Drug uptake in human K562 cells assessed as increase in fluorescence intensity at 1 to 10 umol/L incubated for 2 hrs by cell imaging based fluorescence microscopic analysis; type: ADME; settings: k562, 2 h, dose 1-10 µmol/L
[29] = Interaction with IMA-PROTAC assessed as induction of formation of micelle cluster with uniform and distinct spherical morphology by transmission electron microscopy; type: physicochemical
K562 [30] = assay: Induction of apoptosis in human K562 cells assessed as necrotic cells at PROTAC to compound concentration ratio of 1:5 incubated for 48 hrs in presence of 3 umol/L IMA-PROTAC by AnnexinV-FITC/PI staining based flow cytometry (reference value: 0.1%); type: functional
[31] = Stability of the compound in fetal bovine serum assessed as parent compound remaining measured after 8 hrs by HPLC-MS analysis; type: ADME, cell-free, Bos taurus; settings: cattle, read-out: Stability
[32] = Drug uptake in human K562 cells assessed as increase in fluorescence intensity at 1 to 10 uM incubated for 2 hrs by flow cytometry; type: ADME, cell-based; settings: k562, 2 h, dose 1-10 µM
[33] = Stability of the compound in fetal bovine serum assessed as parent compound remaining measured after 12 hrs by HPLC-MS analysis; type: ADME, cell-free, Bos taurus; settings: cattle, read-out: Stability
[34] = Cytotoxicity against human CCRF-CEM cells assessed as cell viability at 0.01 to 100 uM incubated for 48 hrs by MTT assay; type: toxicity, cell-based; settings: dose 0.01-100 µM, read-out: Activity
K562 [35] = assay: Induction of apoptosis in human K562 cells assessed as early apoptotic cells at PROTAC to compound concentration ratio of 1:5 incubated for 48 hrs in presence of 3 umol/L IMA-PROTAC by AnnexinV-FITC/PI staining based flow cytometry (reference value: 0.03%); type: functional

fold change (FC) [1]: 5.04 | fold change (FC) [2]: 2.69
Compound: CC(C)C[C@@H]1NC(=O)[C@H](Cc2csc3ccccc23)NC(=O)[C@H](Cc2ccc(O)cc2)NC(=O)[C@H](Cc2ccccc2)NC(=O)[C@H](CCCNC(=N)N)NC(=O)[C@H](CCCCN)NC(=O)[C@H](CCC(=O)O)NC(=O)[C@H](CO)NC(=O)[C@H](CCCNC(=N)N)NC1=O (cyclo([Bta]LRSEKRFY))

fold change (FC) [1]: 5.28 | fold change (FC) [2]: 5.65
Compound: CC(C)C[C@@H]1NC(=O)[C@H](Cc2c[nH]c3ccccc23)NC(=O)[C@H](Cc2ccccc2)NC(=O)[C@H](Cc2ccccc2)NC(=O)[C@H](CCCNC(=N)N)NC(=O)[C@H](CCCCN)NC(=O)[C@H](CCC(=O)O)NC(=O)[C@H](CO)NC(=O)[C@H](CCCNC(=N)N)NC1=O (cyclo(EKRFFWLRS))

Drug uptake [5]: Active | Drug uptake [6]: Active | Drug uptake [7]: Tde | Drug uptake [8]: Active | Drug uptake [9]: Active | remaining at 36 h [11]: 75% | Drug uptake [12]: Active | fold change (FC) [13]: 33.3 | Drug uptake [14]: Dose-Dependent Effect | Drug uptake [16]: Not Active | Drug uptake [18]: Not Active | Drug uptake [19]: Tde | Activity [21]: Not Active | fold change (FC) [1]: 9.24 | fold change (FC) [2]: 7.99 | fold change (FC) [25]: 11.7 | Drug uptake [27]: Not Active | Drug uptake [28]: Active | Activity [29]: Not Active | remaining at 8 h [31]: 100% | Drug uptake [32]: Dose-Dependent Effect | remaining at 12 h [33]: 80%
Compound: CC(C)C[C@@H]1NC(=O)[C@H](Cc2c[nH]c3ccccc23)NC(=O)[C@H](Cc2ccc(O)cc2)NC(=O)[C@H](Cc2ccccc2)NC(=O)[C@H](CCCNC(=N)N)NC(=O)[C@H](CCCCN)NC(=O)[C@H](CCC(=O)O)NC(=O)[C@H](CO)NC(=O)[C@H](CCCNC(=N)N)NC1=O (cyclo(EKRFYWLRS))
viability at 48 h [3]: > 75% | Activity (K562 [4]): Active | Activity (K562 [10]): Active | Activity (K562 [15]): 1.58% | fold change (FC) [17]: 2.05 | Activity (K562 [20]): inactive | viability at 48 h, up to 100 µM [22]: > 75% | Activity (K562 [23]): 87.64% | Activity (K562 [24]): Active | viability at 48 h, up to 100 µM [26]: > 75% | Activity (K562 [30]): 0.06% | viability at 48 h, up to 100 µM [34]: > 75% | Activity (K562 [35]): 10.71%

fold change (FC) [1]: 2.8
Compound: CC(C)C[C@@H]1NC(=O)[C@H](Cc2c[nH]c3ccccc23)NC(=O)[C@H](Cc2ccccc2)NC(=O)[C@H](Cc2ccccc2)NC(=O)CNC(=O)[C@H](CCCCN)NC(=O)[C@H](CCC(=O)O)NC(=O)[C@H](CO)NC(=O)[C@H](CCCNC(=N)N)NC1=O (cyclo(EKGFFWLRS))
